# Legend:
# [1] = tested on: Johnson grass (JG); test: Pre-emergence herbicide test; assay type: in vivo, Sorgum helepense; conditions: Sorghum halepense, 336 h, two weeks after treatment
# Procedure, shortened: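 Pots seeded one day before spraying; compound applied pre-emergence at 8 lbs/acre (or 4 lbs/acre) in 38 gallons/acre spray volume. Sub-irrigated in greenhouse; injury/control rated visually two weeks after treatment.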
# [2] = tested on: Turnip (TP); test: Post-emergence herbicide test; assay type: in vivo, Brassica sp.; conditions: Brassica rapa, post-emergence, 336 h, two weeks after treatment
# Procedure, shortened: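 A greenhouse post-emergence herbicide test on turnip. Seeds were sown on the surface of potting soil in 3' plastic pots, lightly covered with screened soil and watered from below. Planting was timed so seedlings had 1 or 2 true leaves above the cotyledons at spraying, done in a hood with a fixed nozzle. Control or injury was scored by eye after two weeks.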
# [3] = tested on: Amaranth pigweed (PW); test: Pre-emergence herbicide test; assay type: in vivo, Amaranthus retroflexus; conditions: 336 h, two weeks after treatment
# Method: All crop and weed species were planted individually in 3' plastic pots containing potting soil. Four seeds each of corn, cotton, and snapbeans were seeded to a depth equal to the diameter of the seed. All other species were surface seeded and sprinkled with screened soil in an amount sufficient to cover the seed. Immediately after planting, all pots were watered by sub-irrigation in greenhouse trays. Pots for the pre-emergence phase were seeded one day before treatment.
# Compounds were tested at rates of application equivalent to 8 lbs. of actual compound per acre in a spray volume of 38 gallons per acre. Spray hood constants required to deliver the above volume are as follows:
# Formulations for spray applications were prepared in 50 ml volumes with the following three components:
# Formulations for the 4 lbs/acre rate were prepared by adjusting the amount of active ingredient accordingly.
# Spray applications were made in a hood containing a removable belt and fixed spray nozzle. For passage through the spray hood, one pot of each specie (pre-emergence phase) was placed on the rear half of the flat. Treatments were removed to the greenhouse after spraying. Watering during the observation period was done only by sub-irrigation.
# Two weeks after treatment, pre- and post-emergence injury or control was visually rated, and the results were as shown in the following tables. Pre-emergence data are provided in TABLE III and post-emergence data are provided in TABLE IV, for compounds having the formula illustrated in TABLE I. Correspondingly, pre-emergence and post-emergence data, respectively, are set forth in TABLES V AND VI, for compounds having the formula illustrated in TABLE II.
# [4] = tested on: Turnip (TP); test: Pre-emergence herbicide test; assay type: in vivo, Brassica sp.; conditions: Brassica rapa, pre-emergence, 336 h, two weeks after treatment
# Procedure, shortened: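 Turnip (Brassica sp.) seeds were surface sown in 3' plastic pots of potting soil, covered with a thin layer of screened soil, and sub-irrigated in greenhouse trays. Pots were seeded one day ahead of treatment, sprayed pre-emergence under a hood with a fixed nozzle and moving belt, then kept in the greenhouse.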
# [5] = tested on: Bean (BN); test: Post-emergence herbicide test; assay type: in vivo, Phaseolus vulgaris var. Black Valentine; conditions: Phaseolus vulgaris, post-emergence, 336 h, two weeks after treatment
# Procedure, shortened: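 Snapbean (Phaseolus vulgaris var. Black Valentine) was tested post-emergence. Four seeds were sown in 3' plastic pots of potting soil at a depth equal to the seed diameter, then sub-irrigated in greenhouse trays. Planting dates were staggered so plants were sprayed once primary leaves had expanded, with the growing point at the primary leaf nodes.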
# [6] = tested on: Corn (CN); test: Pre-emergence herbicide test; assay type: in vivo; conditions: Zea mays, 336 h, two weeks after treatment
# Procedure, shortened: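 Four corn seeds per pot, sown at seed-diameter depth one day before spraying, got soil surface treatment at 8 lbs/acre (4 lbs/acre formulations also prepared) in 38 gallons/acre. Pots were greenhouse-held with sub-irrigation only. Injury or control was scored visually two weeks after treatment.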
# [7] = tested on: Cotton (CT); test: Pre-emergence herbicide test; assay type: in vivo, Gossypium hirsutum var. DPL smooth leaf; conditions: Gossypium hirsutum, 336 h, two weeks after treatment
# Procedure, shortened: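 Crop and weed species seeded one day before treatment, then sprayed pre-emergence at 8 lbs actual compound per acre (also 4 lbs/acre formulations) in 38 gallons per acre. Pots kept in greenhouse with sub-irrigation only; injury or control visually rated two weeks after treatment.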
# [8] = tested on: Crabgrass (CG); test: Post-emergence herbicide test; assay type: in vivo, Digitaria sanquinalis; conditions: Digitaria sanguinalis, post-emergence, 336 h, two weeks after treatment
# Procedure, shortened: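 Crabgrass (Digitaria sanquinalis) was surface seeded individually in 3' plastic pots of potting soil, covered with screened soil, and watered by sub-irrigation in greenhouse trays. Planting was staggered so seedlings reached the target stage together. Post-emergence sprays were applied in a hood with a removable belt and fixed nozzle, and control was visually rated two weeks after treatment.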
# [9] = tested on: Bean (BN); test: Pre-emergence herbicide test; assay type: in vivo, Phaseolus vulgaris var. Black Valentine; conditions: Phaseolus vulgaris, 336 h, two weeks after treatment
# Procedure, shortened: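 Black Valentine bean was seeded in potting soil one day before spraying. Compound was applied pre-emergence at 8 lbs/acre (also 4 lbs/acre) in 38 gallons per acre. Plants were sub-irrigated and injury or control was rated visually after two weeks.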
# [10] = tested on: Cotton (CT); test: Post-emergence herbicide test; assay type: in vivo, Gossypium hirsutum var. DPL smooth leaf; conditions: Gossypium hirsutum, post-emergence, 336 h, two weeks after treatment
# Procedure, shortened: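 Cotton (Gossypium hirsutum var. DPL smooth leaf) was grown in 3' plastic pots of potting soil, four seeds per pot, planted at a depth equal to the seed diameter and watered by sub-irrigation. At the stage of expanded cotyledons with the first true leaf 1' long, plants were sprayed post-emergence in a hood with a fixed nozzle over a moving belt. Percent control was rated visually two weeks later.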
# [11] = tested on: Crabgrass (CG); test: Pre-emergence herbicide test; assay type: in vivo, Digitaria sanquinalis; conditions: Digitaria sanguinalis, pre-emergence, 336 h, two weeks after treatment
# Procedure, shortened: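 Crabgrass (Digitaria sanquinalis) was surface seeded in 3' plastic pots of potting soil, covered with screened soil, and watered by sub-irrigation in greenhouse trays. Pots were seeded one day before spraying in a hood with a moving belt and fixed nozzle. Plants stayed in the greenhouse on sub-irrigation, and pre-emergence control was rated visually two weeks after treatment.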
# [12] = tested on: Barnyard grass (BG); test: Pre-emergence herbicide test; assay type: in vivo; conditions: Echinochloa crus-galli, 336 h, two weeks after treatment
# Procedure, shortened: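 Barnyard grass surface-seeded in potting soil and sprayed pre-emergence one day after seeding, at 8 or 4 lb compound/acre in 38 gal/acre spray volume. Pots kept in greenhouse with sub-irrigation only; injury or control rated visually two weeks after treatment.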
structure (smiles),measurement,setting,value
CCSc1nnc(N(C)C(=O)NC)s1 [Example 89],pest or weed control at 560.425 g/ha,[1]; 0.5 lb/acre,40%
same,pest or weed control at 1120.85 g/ha,[1]; 1 lb/acre,50%
same,pest or weed control at 2241.7 g/ha,[1]; 2 lb/acre,80%
same,pest or weed control at 4483.4 g/ha,[1]; 4 lb/acre,70%
same,pest or weed control at 560.425 g/ha,[2]; 0.5 lb/acre,100%
same,pest or weed control at 1120.85 g/ha,[2]; 1 lb/acre,100%
same,pest or weed control at 2241.7 g/ha,[2]; 2 lb/acre,100%
same,pest or weed control at 4483.4 g/ha,[2]; 4 lb/acre,100%
same,pest or weed control at 560.425 g/ha,[3]; 0.5 lb/acre,70%
same,pest or weed control at 1120.85 g/ha,[3]; 1 lb/acre,100%
same,pest or weed control at 2241.7 g/ha,[3]; 2 lb/acre,100%
same,pest or weed control at 4483.4 g/ha,[3]; 4 lb/acre,100%
same,pest or weed control at 560.425 g/ha,[4]; 0.5 lb/acre,30%
same,pest or weed control at 1120.85 g/ha,[4]; 1 lb/acre,70%
same,pest or weed control at 2241.7 g/ha,[4]; 2 lb/acre,80%
same,pest or weed control at 4483.4 g/ha,[4]; 4 lb/acre,90%
same,pest or weed control at 560.425 g/ha,[5]; 0.5 lb/acre,90%
same,pest or weed control at 1120.85 g/ha,[5]; 1 lb/acre,100%
same,pest or weed control at 2241.7 g/ha,[5]; 2 lb/acre,100%
same,pest or weed control at 4483.4 g/ha,[5]; 4 lb/acre,100%
same,pest or weed control at 560.425 g/ha,[6]; 0.5 lb/acre,10%
same,pest or weed control at 1120.85 g/ha,[6]; 1 lb/acre,50%
same,pest or weed control at 2241.7 g/ha,[6]; 2 lb/acre,40%
same,pest or weed control at 4483.4 g/ha,[6]; 4 lb/acre,50%
same,pest or weed control at 560.425 g/ha,[7]; 0.5 lb/acre,10%
same,pest or weed control at 1120.85 g/ha,[7]; 1 lb/acre,10%
same,pest or weed control at 2241.7 g/ha,[7]; 2 lb/acre,10%
same,pest or weed control at 4483.4 g/ha,[7]; 4 lb/acre,50%
same,pest or weed control at 560.425 g/ha,[8]; 0.5 lb/acre,40%
same,pest or weed control at 1120.85 g/ha,[8]; 1 lb/acre,50%
same,pest or weed control,[8]; 2 lb/acre,90%
same,pest or weed control at 4483.4 g/ha,[8]; 4 lb/acre,90%
same,pest or weed control at 560.425 g/ha,[9]; 0.5 lb/acre,10%
same,pest or weed control at 1120.85 g/ha,[9]; 1 lb/acre,10%
same,pest or weed control at 2241.7 g/ha,[9]; 2 lb/acre,10%
same,pest or weed control at 4483.4 g/ha,[9]; 4 lb/acre,10%
same,pest or weed control at 560.425 g/ha,[10]; 0.5 lb/acre,90%
same,pest or weed control at 1120.85 g/ha,[10]; 1 lb/acre,100%
same,pest or weed control at 2241.7 g/ha,[10]; 2 lb/acre,100%
same,pest or weed control at 4483.4 g/ha,[10]; 4 lb/acre,100%
same,pest or weed control at 560.425 g/ha,[11]; 0.5 lb/acre,50%
same,pest or weed control at 1120.85 g/ha,[11]; 1 lb/acre,90%
same,pest or weed control at 2241.7 g/ha,[11]; 2 lb/acre,90%
same,pest or weed control at 4483.4 g/ha,[11]; 4 lb/acre,100%
same,pest or weed control at 560.425 g/ha,[12]; 0.5 lb/acre,30%
same,pest or weed control at 1120.85 g/ha,[12]; 1 lb/acre,80%
same,pest or weed control at 2241.7 g/ha,[12]; 2 lb/acre,80%
same,pest or weed control at 4483.4 g/ha,[12]; 4 lb/acre,100%
